Results as given in patent US4166864A, “Pesticidal unsymmetrical bis-arylcarbamate disulfide compounds” (Union Carbide Corporation, priority 1977, dated 1979).

Columns and labels:
Type in all cases: in vivo
[1] = tested on: house flies (Musca domestica, L.); assay: Fly Bait Test; set-up: key: A: excellent control; B: partial control; C: no control; details: 500 ppm in sugar-solution bait, twenty four hours
Description: (§1) Suspensions of the test compounds were prepared by dissolving one gram of compound in 50 milliliters of acetone in which had been dissolved 0.1 gram (10 percent of the weight of compound) of an alkylphenoxy polyethoxyethanol surfactant, as an emulsifying or dispersing agent. The resulting solution was mixed into 150 milliliters of water to give roughly 200 milliliters of a suspension containing the compound in finely divided form. The thus-prepared stock suspension contained 0.5 percent by weight of compound. The test concentrations in parts per million by weight employed in the tests described hereinbelow were obtained by appropriate dilutions of the stock suspension with water. The test procedures were as follows:
Four to six day old adult house flies (Musca domestica, L.) reared according to the specifications of the Chemical Specialties Manufacturing Association (Blue Book, McNair-Dorland Co., N.Y. 1954; pages 243-244, 261) under controlled conditions of 80°±5° F. and 50±5 percent relative humidity, were the test insects. The flies were immobilized by anesthetizing with carbon dioxide and twenty five immobilized individuals, males and females, were transferred to a cage consisting of a standard food strainer about five inches in diameter which was inverted over a wrapping-paper-covered surface. The test compounds were formulated by diluting the stock suspension with a 10 percent (by weight) sugar solution to give a suspension containing 500 parts of test compound per million parts of final formulation, by weight. Ten milliliters of the test formulation were added to a souffle cup containing a one-inch square of an absorbent cotton pad. This bait cup was introduced and centered on the blotting paper under the food strainer prior to admitting the anesthetized flies. The caged flies were allowed to feed on the bait for twenty four hours, at a temperature of 80°±5° F. and the relative humidity of 50±5 percent.
(§2) In these tests the pesticidal activity of the compounds against aphid, mite, Southerm Armyworm, Bean Beetle and house fly was rated as follows: […]

Corn = assay: Phytotoxicity Test, corn; set-up: key: 1: no perceptible injury; 2: intermediate degrees of injury based upon the number and extent to which leaves were injured; 3: intermediate degrees of injury based upon the number and extent to which leaves were injured; 4: intermediate degrees of injury based upon the number and extent to which leaves were injured; 5: the plant was dead; details: 2500 ppm spray, rated after ten days
Description: (§3) Experiments were also conducted to determine the phytoxicity of representative compounds with respect to healthy fresh plants. Solutions of the compounds were prepared as described above to provide a concentration of 2500 parts per million of the test compound. The test plants were sprayed in accordance with the procedure described above for the Mite Foliage Spray Test so as to deliver approximately 100 milliliters of test solution to the leaves of each plant tested. The sprayed plants and controls were set aside for approximately one hour to allow the foliage to dry and were then placed in the greenhouse. After ten days the plants were visually inspected to determine the extent of foliage injury. A rating of 1 indicates no perceptible injury; 5 indicates the plant was dead and ratings of 2, 3 and 4 indicate intermediate degrees of injury based upon the number and extent to which leaves were injured.

[2] = tested on: bean aphid (Aphis fabae Scop.); assay: Bean Aphid Foliage Spray Test; set-up: key: A: excellent control; B: partial control; C: no control; details: 500 ppm foliage spray, 24 hour holding period
Description: as §1
Adults and nymphal stages of the bean aphid (Aphis fabae Scop.) reared on potted dwarf nasturtium plants at […] and 50-70 percent relative humidity, constituted the test insects. For testing purposes, the number of aphids per pot was standardized to 100-150 by trimming plants containing excess aphids.
The test compounds were formulated by diluting the stock suspension with water to give a suspension containing 500 parts of test compound per million parts of final formulation.
The potted plants (one pot per compound tested) infested with 100-150 aphids, were placed on a revolving turntable and sprayed with 100-110 milliliters of test compound formulation by use of a DeVilbiss spray gun set at 40 psig. air pressure. This application, which lasted 25 seconds, was sufficient to wet the plants to run-off. As a control, 100-110 milliliters of a water-acetone-emulsifier solution containing no test compound were also sprayed on infested plants. After spraying, the pots were placed on their sides on a sheet of white standard mimeograph paper which had been previously ruled to facilitate counting. Temperature and humidity in the test room during the 24 hour holding period were 65°-70° F. and 50-70 percent, respectively. Aphids which fell onto the paper and were unable to remain standing after being uprighted were considered dead. Aphids remaining on the plants were observed closely for movement and those which were unable to move the length of the body upon stimulation by prodding were considered dead. Percent mortality was recorded for various concentration levels.
as §2

Tomato = assay: Phytotoxicity Test, tomato; set-up: key: 1: no perceptible injury; 2: intermediate degrees of injury based upon the number and extent to which leaves were injured; 3: intermediate degrees of injury based upon the number and extent to which leaves were injured; 4: intermediate degrees of injury based upon the number and extent to which leaves were injured; 5: the plant was dead; details: 2500 ppm spray, rated after ten days
Description: as §3

[3] = tested on: Mexican bean beetle (Epilachna varivestis, Muls.); assay: Mexican Bean Beetle Leaf Spray Test; set-up: key: A: excellent control; B: partial control; C: no control; details: 500 ppm leaf spray, three days
Description: as §1
Fourth instar larvae of the Mexican bean beetle (Epilachna varivestis, Muls.), reared on Tendergreen bean plants at a temperature of 80°±5° F. and 50±5 percent relative humidity, were the test insects.
The test compounds were formulated by diluting the stock suspension with water to give a suspension containing 500 parts of test compound per million parts of final formulation. Potted Tendergreen bean plants of standard height and age were placed on a revolving turntable and sprayed with 100-110 milliliters of test compound formulation by use of a DeVilbiss spray gun set at 10 psig air pressure. This application, which lasted 25 seconds, was sufficient to wet plants to run-off. As a control, 100-110 milliliters of a water-acetone-emulsifier solution containing no test compound were also sprayed on infested plants. When dry, the paired leaves were separated and each was placed in a 9 centimeter Petri dish lined with moistened filter paper. Five randomly selected larvae were introduced into each dish, and the dishes were closed. The closed dishes were labeled and held at a temperature of 80°±5° F. for three days. Although the larvae could easily consume the leaf within 24 to 48 hours, no more food was added. Larvae which were unable to move the length of the body, even upon stimulation, were considered dead.
as §2

Soybean = assay: Phytotoxicity Test, soybean; set-up: key: 1: no perceptible injury; 2: intermediate degrees of injury based upon the number and extent to which leaves were injured; 3: intermediate degrees of injury based upon the number and extent to which leaves were injured; 4: intermediate degrees of injury based upon the number and extent to which leaves were injured; 5: the plant was dead; details: 2500 ppm spray, rated after ten days
Description: as §3

[4] = tested on: southern armyworm (Prodenia eridania, (Cram.)); assay: Southern Armyworm Leaf Spray Test; set-up: key: A: excellent control; B: partial control; C: no control; details: 500 ppm leaf spray, three days
Description: as §1
Larvae of the southern arymworm (Prodenia eridania, (Cram.)), reared on Tendergreen bean plants at a temperature of 80°±5° F. and a relative humidity of 50±5 percent, constituted the test insects.
The test compounds were formulated by diluting the stock suspension with water to give a suspension containing 500 parts of test compound per million parts of final formulation. Potted Tendergreen bean plants of standard height and age were placed on a revolving turntable and sprayed with 100-110 milliliters of test compound formulation by use of a DeVilbiss spray gun set at 10 psig air pressure. This application, which lasted 25 seconds, was sufficient to wet plants to run-off. As a control, 100-110 milliliters of a water-acetone-emulsifier solution containing no test compound were also sprayed on infested plants. When dry, the paired leaves were separated and each one was placed in a 9 centimeter Petri dish lined with moistened filter paper. Five randomly selected larvae were introduced into each dish and the dishes were closed. The closed dishes were labeled and held at 80°-85° F. for three days. Although the larvae could easily consume the whole leaf within twenty-four hours, no more food was added. Larvae which were unable to move the length of the body, even upon stimulation by prodding, were considered dead. Percent mortality was recorded for various concentration levels.
as §2

Bean = assay: Phytotoxicity Test, bean; set-up: key: 1: no perceptible injury; 2: intermediate degrees of injury based upon the number and extent to which leaves were injured; 3: intermediate degrees of injury based upon the number and extent to which leaves were injured; 4: intermediate degrees of injury based upon the number and extent to which leaves were injured; 5: the plant was dead; details: 2500 ppm spray, rated after ten days
Description: as §3

[5] = tested on: two-spotted mite (Tetranychus urticae Koch); assay: Mite Foliage Spray Test; set-up: key: A: excellent control; B: partial control; C: no control; details: 500 ppm foliage spray, six days
Description: as §1
Adults and nymphal stages of the two-spotted mite (Tetranychus urticae Koch), reared on Tendergreen bean plants at 80±5 percent relative humidity, were the test organisms. Infested leaves from a stock culture were placed on the primary leaves of two bean plants six to eight inches in height, growing in a two-and-a-half inch clay pot. 150-200 Mites, a sufficient number for testing, transferred from the excised leaves to the fresh plants in a period of twenty four hours. Following the twenty four hour transfer period, the excised leaves were removed from the infested plants. The test compounds were formulated by diluting the stock suspension with water to give a suspension containing 500 parts of test compound per million parts of final formulation. The potted plants (one pot per compound) were placed on a revolving turntable and sprayed with 100-110 milliliters of test compound formulation by use of a DeVilbiss spray gun set at 40 psig. air pressure. This application, which lasted 25 seconds, was sufficient to wet the plants to run-off. As a control, 100=110 milliliters of a water solution containing acetone and emulsifier in the same concentrations as the test compound formulation, but containing no test compound, were also sprayed on infested plants. The sprayed plants were held at 80±5 percent relative humidity for six days, after which a mortality count of motile forms was made. Microscopic examination for motile forms was made on the leaves of the test plants. Any individual which was capable of locomotion upon prodding was considered living. […]
as §2

Cotton = assay: Phytotoxicity Test, cotton; set-up: key: 1: no perceptible injury; 2: intermediate degrees of injury based upon the number and extent to which leaves were injured; 3: intermediate degrees of injury based upon the number and extent to which leaves were injured; 4: intermediate degrees of injury based upon the number and extent to which leaves were injured; 5: the plant was dead; details: 2500 ppm spray, rated after ten days
Description: as §3

SMILES	Insecticidal activity rating, Housefly [1]	Phytotoxicity, Corn (Corn)	Insecticidal activity rating, Aphid [2]	Phytotoxicity, Tomato (Tomato)	Insecticidal activity rating, Mexican Bean Beetle [3]	Phytotoxicity, Soybean (Soybean)	Insecticidal activity rating, Southern Armyworm [4]	Phytotoxicity, Bean (Bean)	Miticidal activity rating, Mite [5]	Phytotoxicity, Cotton (Cotton)
C#CCOc1ccccc1OC(=O)N(C)SSN(C)C(=O)Oc1cccc2c1OC(C)(C)C2	A	1	A	1	A	2	A	1	C	1
CN(SSN(C)C(=O)Oc1cccc2ccccc12)C(=O)Oc1cccc2c1OC(C)(C)C2	A	1	A	1	A	1	A	1	C	1
CSc1ccc(OC(=O)N(C)SSN(C)C(=O)Oc2cccc3c2OC(C)(C)C3)cc1C	A	1	A	1	A	1	A	1	C	1
Cc1cc(C)cc(OC(=O)N(C)SSN(C)C(=O)Oc2cccc3c2OC(C)(C)C3)c1	A	1	A	1	A	1	A	1	C	1
CN(SSN(C)C(=O)Oc1cccc2c1OC(C)(C)C2)C(=O)Oc1cccc(N(C)C)c1	A	1	A	1	A	1	A	1	C	1
CN(SSN(C)C(=O)Oc1cccc2c1OC(C)(C)C2)C(=O)Oc1ccc2c(c1)OCO2	A	1	A	1	A	1	A	1	C	1
CN(SSN(C)C(=O)Oc1ccccc1C1SCCS1)C(=O)Oc1ccc(C(C)(C)C)cc1	A	1	A	1	A	1	C	1	C	1
